Patent US20250270180A1, “MEK INHIBITORS AND THERAPEUTIC USES THEREOF” (Immuneering Corporation, priority 2020, published 2025)
Like-named read-outs stand apart in the source and are kept apart here.

Legend:
CYP450 1A2 = biological target: T1, CYP450 1A2 (Homo sapiens, UniProt P05177); test: CYP450 panel, 1A2; type: in vitro ADME; settings: 10 μM; substrate phenacetin
T1 sequence (P05177 1-516): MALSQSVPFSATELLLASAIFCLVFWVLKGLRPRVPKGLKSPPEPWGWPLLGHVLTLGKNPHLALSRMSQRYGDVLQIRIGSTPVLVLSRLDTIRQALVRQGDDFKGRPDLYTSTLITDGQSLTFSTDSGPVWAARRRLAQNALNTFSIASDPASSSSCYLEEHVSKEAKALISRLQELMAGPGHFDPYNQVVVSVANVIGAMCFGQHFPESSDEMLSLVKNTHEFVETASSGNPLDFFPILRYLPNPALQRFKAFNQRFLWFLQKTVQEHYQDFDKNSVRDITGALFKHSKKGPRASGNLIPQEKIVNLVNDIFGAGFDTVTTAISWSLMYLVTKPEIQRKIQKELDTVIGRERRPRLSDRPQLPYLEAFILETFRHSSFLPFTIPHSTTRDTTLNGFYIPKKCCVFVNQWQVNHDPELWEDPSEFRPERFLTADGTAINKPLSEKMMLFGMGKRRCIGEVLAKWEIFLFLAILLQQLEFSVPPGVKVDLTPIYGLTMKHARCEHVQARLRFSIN

CYP450 2D6 = CYP450 2D6 (Homo sapiens, UniProt P10635); test: CYP450 panel, 2D6; settings: 10 μM; substrate dextromethophan
Sequence of CYP450 2D6 (P10635 whole entry): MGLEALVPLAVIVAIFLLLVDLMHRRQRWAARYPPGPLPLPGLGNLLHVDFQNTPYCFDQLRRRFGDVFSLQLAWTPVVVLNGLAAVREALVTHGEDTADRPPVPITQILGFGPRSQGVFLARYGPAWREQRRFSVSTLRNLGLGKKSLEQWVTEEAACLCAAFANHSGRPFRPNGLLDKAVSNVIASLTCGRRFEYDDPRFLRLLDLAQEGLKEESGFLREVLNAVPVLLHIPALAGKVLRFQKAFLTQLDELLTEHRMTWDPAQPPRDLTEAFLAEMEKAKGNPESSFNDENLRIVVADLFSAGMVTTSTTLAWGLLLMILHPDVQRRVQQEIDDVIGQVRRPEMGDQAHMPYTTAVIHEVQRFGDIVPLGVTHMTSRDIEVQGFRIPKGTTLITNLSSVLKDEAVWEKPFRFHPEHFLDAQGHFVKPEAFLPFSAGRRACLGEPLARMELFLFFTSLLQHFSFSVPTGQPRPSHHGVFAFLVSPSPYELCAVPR

CYP450 2C19 = CYP450 2C19 (Homo sapiens, UniProt P33261); test: CYP450 panel, 2C19; settings: 10 μM; substrate mephenytoin
Sequence of CYP450 2C19 (P33261 whole entry): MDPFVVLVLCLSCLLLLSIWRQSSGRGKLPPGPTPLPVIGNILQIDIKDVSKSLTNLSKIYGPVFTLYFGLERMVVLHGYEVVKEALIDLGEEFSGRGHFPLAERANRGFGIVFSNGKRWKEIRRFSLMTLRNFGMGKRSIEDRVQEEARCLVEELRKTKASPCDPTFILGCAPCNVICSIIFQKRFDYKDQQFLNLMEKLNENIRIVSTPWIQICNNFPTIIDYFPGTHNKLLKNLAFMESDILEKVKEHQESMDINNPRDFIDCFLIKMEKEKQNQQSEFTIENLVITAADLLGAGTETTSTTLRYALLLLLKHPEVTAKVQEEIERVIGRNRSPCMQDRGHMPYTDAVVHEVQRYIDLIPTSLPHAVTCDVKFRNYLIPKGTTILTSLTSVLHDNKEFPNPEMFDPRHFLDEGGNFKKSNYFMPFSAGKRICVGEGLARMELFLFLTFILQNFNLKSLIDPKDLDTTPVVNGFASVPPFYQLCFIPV

CYP450 2C9 = CYP450 2C9 (Homo sapiens, UniProt P11712); test: CYP450 panel, 2C9; settings: 10 μM; substrate Diclofenac
Sequence of CYP450 2C9 (P11712 whole entry): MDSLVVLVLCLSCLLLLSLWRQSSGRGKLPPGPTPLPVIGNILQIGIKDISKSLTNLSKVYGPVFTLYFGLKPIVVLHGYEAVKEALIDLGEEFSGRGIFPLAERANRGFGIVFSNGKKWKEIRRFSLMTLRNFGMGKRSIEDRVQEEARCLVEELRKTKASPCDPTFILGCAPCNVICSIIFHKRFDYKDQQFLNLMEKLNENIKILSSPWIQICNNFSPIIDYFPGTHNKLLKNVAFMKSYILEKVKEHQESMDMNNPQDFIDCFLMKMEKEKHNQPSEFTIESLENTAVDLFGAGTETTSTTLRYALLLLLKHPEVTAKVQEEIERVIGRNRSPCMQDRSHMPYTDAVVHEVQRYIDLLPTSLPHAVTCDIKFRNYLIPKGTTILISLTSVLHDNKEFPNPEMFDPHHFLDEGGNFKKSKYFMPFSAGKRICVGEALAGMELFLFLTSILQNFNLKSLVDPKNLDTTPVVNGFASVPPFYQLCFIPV

[1] = Plasma stability, CD-1 mouse; type: in vitro ADME; settings: 2 μM
[2] = Plasma stability, beagle dog; type: in vitro ADME; settings: 2 μM
Plasma stability, human = type: in vitro ADME; settings: 2 μM
A549 pERK = test: A549-pERK, 2 h (quantitative Western, Jess); type: cell-based; settings: Homo sapiens, A549, 2 h, 10 nM, phospho:total ratio normalized to DMSO control
How it was run: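 Cells treated in duplicate for 2 h with compound, lysed and protein-normalised (1 mg/mL pERK, 1.5 mg/mL pMEK). Quantitative capillary Western; phospho/total protein ratio normalised to DMSO.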

CYP450 3A4 = CYP450 3A4 (Homo sapiens, UniProt P08684); test: CYP450 panel, 3A4; settings: 10 μM; for 3A4*: substrate midazolam; for 3A4^: substrate testosterone
Sequence of CYP450 3A4 (P08684 whole entry): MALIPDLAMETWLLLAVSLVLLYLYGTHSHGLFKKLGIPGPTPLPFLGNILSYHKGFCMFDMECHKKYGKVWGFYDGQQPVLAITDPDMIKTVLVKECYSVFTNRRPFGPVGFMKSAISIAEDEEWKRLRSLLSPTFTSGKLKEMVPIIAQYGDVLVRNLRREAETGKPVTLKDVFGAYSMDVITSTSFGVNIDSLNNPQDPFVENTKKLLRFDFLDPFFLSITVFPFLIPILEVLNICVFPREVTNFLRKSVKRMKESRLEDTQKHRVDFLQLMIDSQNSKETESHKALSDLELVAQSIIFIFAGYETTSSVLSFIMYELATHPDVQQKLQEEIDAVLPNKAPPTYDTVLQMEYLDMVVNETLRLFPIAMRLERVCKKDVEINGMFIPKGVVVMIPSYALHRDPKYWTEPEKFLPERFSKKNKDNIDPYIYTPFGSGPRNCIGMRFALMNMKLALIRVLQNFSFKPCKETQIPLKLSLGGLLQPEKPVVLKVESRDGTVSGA

[3] = Microsome stability, human; type: in vitro ADME; settings: microsomes, 2 μM
CYP450 2C8 = biological target: T2, CYP450 2C8 (Homo sapiens, UniProt P10632); test: CYP450 panel, 2C8; settings: 10 μM; substrate amodiaquine
T2 sequence (P10632 1-490): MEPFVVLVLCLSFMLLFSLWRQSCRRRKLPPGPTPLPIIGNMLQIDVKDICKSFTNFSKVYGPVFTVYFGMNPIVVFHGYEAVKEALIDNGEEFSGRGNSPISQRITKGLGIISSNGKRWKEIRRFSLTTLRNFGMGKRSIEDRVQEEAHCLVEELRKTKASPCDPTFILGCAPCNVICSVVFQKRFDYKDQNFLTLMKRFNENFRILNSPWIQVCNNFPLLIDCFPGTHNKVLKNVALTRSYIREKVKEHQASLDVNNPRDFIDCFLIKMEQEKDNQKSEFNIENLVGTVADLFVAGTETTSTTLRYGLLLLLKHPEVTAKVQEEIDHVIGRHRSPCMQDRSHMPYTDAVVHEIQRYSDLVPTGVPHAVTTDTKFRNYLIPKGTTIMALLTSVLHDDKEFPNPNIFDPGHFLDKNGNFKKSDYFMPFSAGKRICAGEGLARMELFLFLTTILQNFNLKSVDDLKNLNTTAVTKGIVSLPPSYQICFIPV

[4] = tested on: A549 CRAF BP (MEK phosphorylation); test: A549-CRAF BP 100 nM, 2 h (pMEK); type: cell-based; settings: Homo sapiens, A549, 2 h, phospho:total ratio normalized to DMSO control
Method: A549 or […] cells were treated in duplicate for two hours with compounds at varying concentrations. After two hours, the cells were lysed, snap frozen, and stored at −80° C. After storage, the lysate was quantified with the Bradford assay. Before the lysates were prepared to run on the Jess, the lysates were diluted to 1 mg/mL for pERK analysis and 1.5 mg/mL pMEK analysis using quantitative Western blotting. ERK and MEK phosphorylation levels were estimated by taking the ratio of phospho-protein to total protein and normalizing to the DMSO control. The results of this study are described in Tables 14-16.

[5] = Microsome stability, CD-1 mouse; settings: microsomes, 2 μM
CYP450 2B6 = biological target: T3, CYP450 2B6 (Homo sapiens, UniProt P20813); test: CYP450 panel, 2B6; settings: 10 μM; substrate bupropion
T3 sequence (P20813 1-491): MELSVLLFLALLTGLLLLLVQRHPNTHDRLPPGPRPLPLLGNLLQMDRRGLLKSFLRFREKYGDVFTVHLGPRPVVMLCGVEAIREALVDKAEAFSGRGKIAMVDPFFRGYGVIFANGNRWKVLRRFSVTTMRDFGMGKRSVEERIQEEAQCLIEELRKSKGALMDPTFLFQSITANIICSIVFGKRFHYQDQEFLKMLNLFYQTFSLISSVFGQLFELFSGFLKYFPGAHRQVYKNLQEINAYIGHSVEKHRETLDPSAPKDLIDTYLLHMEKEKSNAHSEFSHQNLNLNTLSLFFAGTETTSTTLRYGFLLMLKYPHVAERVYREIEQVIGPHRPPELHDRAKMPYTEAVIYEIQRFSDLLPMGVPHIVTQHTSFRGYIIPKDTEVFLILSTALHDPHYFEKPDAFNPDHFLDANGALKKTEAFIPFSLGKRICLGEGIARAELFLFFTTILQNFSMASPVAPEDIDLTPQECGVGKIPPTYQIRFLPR

[6] = Absorption & efflux: Caco-2 permeability; settings: human
hERG Channel = hERG Channel (Homo sapiens, UniProt Q12809); test: cell-based
Sequence of hERG Channel (Q12809 whole entry): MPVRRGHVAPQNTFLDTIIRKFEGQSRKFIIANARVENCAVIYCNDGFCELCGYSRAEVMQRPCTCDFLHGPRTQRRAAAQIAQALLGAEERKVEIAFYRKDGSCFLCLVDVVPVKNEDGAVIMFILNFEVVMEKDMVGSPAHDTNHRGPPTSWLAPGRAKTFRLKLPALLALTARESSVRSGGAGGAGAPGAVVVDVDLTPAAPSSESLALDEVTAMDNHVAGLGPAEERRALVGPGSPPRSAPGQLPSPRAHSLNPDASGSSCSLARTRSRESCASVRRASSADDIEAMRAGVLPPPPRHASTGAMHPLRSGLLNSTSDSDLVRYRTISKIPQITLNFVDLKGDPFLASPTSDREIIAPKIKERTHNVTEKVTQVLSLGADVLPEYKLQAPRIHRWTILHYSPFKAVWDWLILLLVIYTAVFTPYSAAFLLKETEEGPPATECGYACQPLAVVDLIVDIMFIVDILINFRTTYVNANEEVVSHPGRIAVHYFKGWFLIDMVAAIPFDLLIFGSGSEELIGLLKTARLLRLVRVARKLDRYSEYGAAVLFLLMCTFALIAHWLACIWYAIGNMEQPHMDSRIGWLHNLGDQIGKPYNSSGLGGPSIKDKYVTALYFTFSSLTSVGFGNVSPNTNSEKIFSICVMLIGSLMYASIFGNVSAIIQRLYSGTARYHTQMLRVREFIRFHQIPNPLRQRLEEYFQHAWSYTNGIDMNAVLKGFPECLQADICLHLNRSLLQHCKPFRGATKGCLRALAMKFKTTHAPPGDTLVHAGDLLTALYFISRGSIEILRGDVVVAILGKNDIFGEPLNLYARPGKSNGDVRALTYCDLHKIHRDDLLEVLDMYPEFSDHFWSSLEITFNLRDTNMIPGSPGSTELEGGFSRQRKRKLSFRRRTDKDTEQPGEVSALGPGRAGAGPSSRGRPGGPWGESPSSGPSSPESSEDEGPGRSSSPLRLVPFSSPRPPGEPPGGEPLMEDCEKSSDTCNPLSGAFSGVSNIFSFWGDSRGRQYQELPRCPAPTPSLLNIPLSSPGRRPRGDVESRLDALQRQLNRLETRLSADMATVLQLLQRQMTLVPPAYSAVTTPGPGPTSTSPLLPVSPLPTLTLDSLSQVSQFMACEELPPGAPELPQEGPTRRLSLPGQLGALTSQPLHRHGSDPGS

[7] = Microsome stability, beagle dog; type: in vitro ADME; settings: microsomes, 2 μM
[8] = Pharmacokinetics, single dose, 2-hour tissue levels in Colon26 tumor bearing mice; type: in vivo; settings: single dose 100 mg/kg p.o., 2-hour post dose; for concentration at 2 h: female, athymic BALB/c nude or BALB/c, mouse, po
Method: Female mice (either athymic BALC/c nude, or BALB/c mice) were inoculated with a single subcutaneous injection of 0.2 ml of mouse Colon-26 cell suspension (1×10^5 cells per animal) in the inguinal region. Colon26 (C26) tumor bearing mice received a single dose (3 mice/treatment) of vehicle (10% DMSO/90% [20% SBE-β-CD in saline], pH 5) containing compounds at 100 mg/kg by gavage (p.o.) and 2-hour post dose humanely euthanized.
Blood was obtained through cardiac puncture into K+EDTA tubes, mixed by inversion and centrifuged to obtain the plasma. Tissues were excised, cleaned of surrounding tissues. All samples immediately snap frozen in liquid N2 prior to LC-MS/MS analysis (using Waters HSS T3 2.1×50 mm (1.8 um) LC column, and an API-6500 Electrospray MS unit).

[9] = Caco-2, A-B Permeability Ranking
[10] = Caco-2, Mean Papp A-B (10^−6 cm/s)

Row | SMILES | 1A2* (CYP450 1A2) | 2D6* (CYP450 2D6) | 2C19* (CYP450 2C19) | 2C9* (CYP450 2C9) | CD-1 Mouse (% Reamining @2 hour) [1] [%] | Beagle Dog (% Reamining @2 hour) [2] [%] | Human (% Reamining @2 hour) (Plasma stability, human) [%] | activity at 0.01 µM (A549 pERK) [%] | 3A4* (CYP450 3A4) | 3A4^ (CYP450 3A4) | Human (% Reamining @1 hour) [3] [%] | 2C8* (CYP450 2C8) | CD-1 Mouse (% Reamining @1 hour) [5] [%] | 2B6* (CYP450 2B6) | Papp B→A at 2 h, 10 μM [6] [×10⁻⁶ cm/s] | efflux ratio at 2 h, 10 μM [6] | Papp A→B at 2 h, 10 μM [6, 9] [×10⁻⁶ cm/s] | Papp A→B at 2 h, 10 μM [6, 10] [×10⁻⁶ cm/s] | IC50 (hERG Channel) [µM] | Beagle Dog (% Reamining @1 hour) [7] [%] | also measured
1 | CNS(=O)(=O)Nc1cccc(Cc2c(CN3CCNCC3)c3ccc(OC(=O)N(C)C)cc3oc2=O)c1F [Compound 10] | 0.4 | −3.4 | 4.8 | 1.8 | 97.7 | 96.2 | 92.1 | 27.7 | 17.3 | 16.2 | 80.1 | −1.0 | 91.3 | 22.4 | 3.8 | 56.3 | < 1 | 0.0676 | > 30 | 73.9 | activity at 0.1 µM [4]: 42.2%
2 | CNS(=O)(=O)Nc1cccc(Cc2c(CNCC#N)c3ccc(OC(=O)N(C)C)cc3oc2=O)c1F [Compound 13] | 6.5 | −2.6 | 6.2 | −4.6 | 87.1 | 95.9 | 87.3 |  | 25.7 | 34.9 | 57.7 | 6.2 | 16.8 | 15.8 | 20 | 5.57 | > 1 | 3.59 | > 30 | 69.6 | concentration at 2 h ([8]; liver, read-out: Liver): 36.6 ng/g; concentration at 2 h ([8]; tumor, read-out: Tumor): 26 ng/g; Muscle [8]: BQL; Plasma [8]: BQL
3 | C#CCNCc1c(Cc2cccc(NS(=O)(=O)NC)c2F)c(=O)oc2cc(OC(=O)N(C)C)ccc12 [Compound 14] | 6.3 | 6.6 | 4.0 | 8.2 | 95.0 | 91.2 | 96.0 | 64 | 26.7 | 39.3 | 38.1 | 8.4 | 13.2 | 15.6 | 26.1 | 2.8 | > 1 | 9.34 | 19.4 | 51.6 | concentration at 2 h ([8]; liver, read-out: Liver): 17.8 ng/g; concentration at 2 h ([8]; muscle, read-out: Muscle): 19 ng/g; concentration at 2 h ([8]; plasma, read-out: Plasma): 18.5 ng/mL; concentration at 2 h ([8]; tumor, read-out: Tumor): 2.68 ng/g; activity at 0.1 µM [4]: 59.1%
